These results are taken from US20070270436A1, “NOVEL AMINO- AND IMINO-ALKYLPIPERAZINES” (Recordati Ireland Limited, priority 2006, published 2007).

What is called Ki is a dissociation constant, usually derived from enzyme kinetics or from competition with a known ligand. What is called inhibition is the change of the read-out against control, counted positive when it falls. Broadly, the ED50 is the midpoint of the dose-response relation.

Assay [1] deals with T1, human 5HT1A-serotonergic receptor (Homo sapiens, UniProt P08908).
T1 construct: expressed in transfected cells; host or cells: HeLa (human), stably transfected; membranes
T1 sequence (P08908 1-422): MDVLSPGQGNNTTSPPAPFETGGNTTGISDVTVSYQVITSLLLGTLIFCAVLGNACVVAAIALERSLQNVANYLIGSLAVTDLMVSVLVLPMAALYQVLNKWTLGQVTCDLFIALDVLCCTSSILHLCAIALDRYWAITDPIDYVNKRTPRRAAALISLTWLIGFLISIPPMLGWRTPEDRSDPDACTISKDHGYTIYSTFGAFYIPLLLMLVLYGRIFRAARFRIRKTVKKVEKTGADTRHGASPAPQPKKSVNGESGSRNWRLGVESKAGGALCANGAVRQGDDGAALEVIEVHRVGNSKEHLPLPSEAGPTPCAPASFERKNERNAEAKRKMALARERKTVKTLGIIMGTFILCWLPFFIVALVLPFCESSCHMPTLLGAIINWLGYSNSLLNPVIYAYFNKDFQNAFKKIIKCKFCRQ
The assay is described as follows: Radioligand binding to recombinant 5-HT1A receptor ([3H]8-OH-DPAT, HeLa cell membranes). The note with it: 1 nM [3H]8-OH-DPAT; Ki from IC50 by the Cheng equation; read-out: Ki (nM), binding affinity for 5HT1A receptor. The protocol: Genomic clone G-21 encoding the human 5HT1A-serotonergic receptor was stably transfected in a human cell line (HeLa). HeLa cells were grown as monolayers in Dulbecco's modified Eagle medium (DMEM), containing 10% fetal bovine serum and gentamycin (100 μg/ml) at 37° C. in a humidified atmosphere of 5% CO2 and air. The cells were detached from the growth flask at 95% confluence by a cell scraper and were lysed in cold 5 mM Tris and 5 mM EDTA buffer (pH 7.4). The homogenates were centrifuged at 40000×g×20 minutes and the pellets were resuspended in a small volume of cold 5 mM Tris and 5 mM EDTA buffer (pH 7.4) and immediately frozen and stored at −70° C. until use. On the day of experiment, the cell membranes were resuspended in incubation buffer: 50 mM Tris (pH 7.4), 2.5 mM MgCl2, 10 μM pargyline (Fargin et al., Nature 335, 358-360, 1988). The membranes were incubated in a final volume of 0.32 ml for 30 minutes at 30° C. with 1 nM [^3H]8-OH-DPAT, in the absence or presence of the test compounds. Non-specific binding was determined in the presence of 10 μM 5-HT. Incubation was stopped by addition of cold Tris buffer and rapid filtration through UniFilter GF/C plate.
The affinity of the tested compounds was evaluated as inhibition of specific binding of the radioligand to 5-HT1A receptor (IC50) by using the non-linear curve-fitting program Allfit (De Lean et al., Am. J. Physiol. 235, E97-E102 (1978)). The IC50 value was converted to an affinity constant (Ki) by the equation of Cheng et al., Biochem. Pharmacol. 22, 3099-3108 (1973).

Assay [2] concerns the target T2, human cloned 5-HT1A receptors (Homo sapiens, UniProt P08908).
T2 construct: expressed in transfected cells; host or cells: HeLa (human), stably transfected; membranes
T2 sequence (P08908 1-422): T1 sequence (P08908 1-422)
The assay is described as follows: [35S]GTPγS binding, functional activity. Type of assay: biochemical. The arrangement: key: neutral antagonists (NA); inverse agonists (IA). The note with it: HeLa membranes with human 5-HT1A. The protocol:
On the date of the experiment, cell membranes from HeLa cells transfected with human cloned 5-HT1A receptors were resuspended in buffer pH 7.4 containing 20 mM HEPES, 3 mM MgCl2 and 120 mM NaCl (Stanton, J. A.; Beer, M. S. Eur. J. Pharmacol. 320, 267-275, 1997). The membranes were incubated with 10 μM GDP and decreasing concentrations of test drugs (from 100 μM to 0.1 nM) or decreasing concentrations of 5-HT (from 100 μM to 0.1 nM, reference curve) for 20 min at 30° C. in a final volume of about 0.25 ml. [^35S]GTPγS (200-250 pM in 10 μl) was added to samples and incubated for a further 30 min at 30° C. Non-specific binding was determined in the presence of 10 μM GTPγS. The incubation was stopped by addition of ice-cold HEPES buffer and rapid filtration on Unifilter GF/C filters, using a Filtermate cell harvester (Packard). The filters were washed four times with total 1.2 ml of same buffer. Radioactivity was counted by liquid scintillation spectrometry with efficiency >90% (TopCount Packard). Stimulation of [^35S]GTPγS binding induced by the compounds tested was expressed as % increase in binding above basal value, being the maximal stimulation observed with 5-HT taken as 100%. The concentration-response curve of the agonistic activity was analyzed by non linear fitting program (De Lean et al., Am. J. Physiol. 235, E97-E102, 1978).
A stimulation of [^35S]GTPγS binding represented the functional correlate of the binding of an agonist compound at the 5-HT1A receptors. Stimulation induced by the endogenous ligand 5-HT was considered the maximal stimulation attainable. Compounds stimulating [^35S]GTPγS binding at a lower level were considered as partial agonists. […] Compounds that reduced [^35S]GTPγS binding were considered as inverse agonists.
In general terms: GTPγS is a poorly hydrolysed GTP analogue; its binding reports G protein activation.

A further assay deals with T3, 5-HT1A receptors (Rattus norvegicus, UniProt P19327).
T3 construct: from tissue; host or cells: living male Sprague-Dawley rats (whole animal, behavioural read-out)
T3 sequence (P19327 1-422): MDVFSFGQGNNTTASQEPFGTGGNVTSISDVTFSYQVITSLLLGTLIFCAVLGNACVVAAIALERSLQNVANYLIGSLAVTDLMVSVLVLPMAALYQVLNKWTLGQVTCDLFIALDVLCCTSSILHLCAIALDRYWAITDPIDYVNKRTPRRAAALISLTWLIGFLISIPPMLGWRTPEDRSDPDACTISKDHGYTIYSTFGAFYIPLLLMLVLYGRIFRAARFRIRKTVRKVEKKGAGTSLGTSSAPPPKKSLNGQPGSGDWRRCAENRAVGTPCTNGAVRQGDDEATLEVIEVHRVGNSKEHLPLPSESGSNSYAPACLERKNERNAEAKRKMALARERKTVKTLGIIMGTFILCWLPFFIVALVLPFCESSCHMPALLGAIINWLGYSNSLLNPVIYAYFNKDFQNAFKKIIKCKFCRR
The assay is described as follows: Inhibition of serotonergic syndrome (forepaw treading) induced by 8-OH-DPAT in rats (post-synaptic antagonism). Type of assay: in vivo. The note with it: rat, 10 mg/kg p.o. Here is the method:
The inhibitory effect of 5-HT1A-receptor antagonists on stereotyped forepaw treading induced in rats by subcutaneous injection of 8-OH-DPAT was evaluated by the method of Tricklebank (Tricklebank et al., Eur. J. Pharmacol., 117: 15, 1985) with minor modifications as described below.
Male Sprague-Dawley rats [Crl: CD® (SD) IGS BR] weighing 150-175 g from Charles River Italia were used. The animals were housed with free access to food and water and maintained on a forced 12-hour-light/12-hour-dark cycle at 22-24° C. of temperature. On the day of the experiment, the rats were placed singly in clear plastic containers, 10-15 minutes before oral administration of the vehicle or compounds to be tested. For evaluation of antagonistic activity, the compounds were administered 1 and 4 hours before induction of stereotypy by 8-OH-DPAT (1 mg/kg subcutaneously). Observation sessions lasted 30 seconds and began 3 minutes after 8-OH-DPAT treatment and were repeated every 3 minutes over a period of 15 minutes.
The appearance of the symptoms induced by postsynaptic stimulation of 5-HT1A receptors was noted, and the intensity was scored using an intensity scale in which: 0=absent, 1=equivocal, 2=present and 3=intense. Behavioural scores for treated rats were accumulated throughout the observation time (5 observation periods) and expressed as mean values of 4 rats/dose. Change in mean values of treated animals in comparison with control (vehicle) group, expressed as per-cent inhibition, was used to quantify the antagonistic activity.
In order to quantitate the potency of the compound of Example 24 in inhibiting the stereotypy (forepaw treading) induced by 8-OH-DPAT, an ED50 value (dose inhibiting by 50% the forepaw treading) was evaluated by means of linear regression using the least square method.

Assay [3] concerns rhythmic bladder-voiding contractions. The assay is described as follows: Rhythmic bladder-voiding contractions induced by bladder filling in anaesthetised rats. Type of assay: in vivo, rat. The following applies: intravenous administration. Here is the method:
Female Sprague-Dawley rats weighing 225-275 g (Crl: CD® (SD) IGS BR, Charles River Italia) were used. The animals were housed with free access to food and water and maintained on a forced 12-hour alternating light-dark cycle at 22-24° C. for at least one week, except during the experiment. The activity on rhythmic bladder voiding contractions was evaluated according to the method of Dray (Dray J., Pharmacol. Methods, 13:157, 1985), with some modifications as in Guarneri (Guarneri, Pharmacol. Res. 27:173, 1993). Briefly, the rats were anaesthetised by subcutaneous injection of 1.25 g/kg (5 ml/kg) urethane, after which the urinary bladder was catheterised via the urethra using PE 50 polyethylene tubing filled with physiological saline. The catheter was tied in place with a ligature around the external urethral orifice and was connected to conventional pressure transducers (Statham P23 ID/P23 XL). […] The bladder was then filled via the recording catheter by incremental volumes of warm (37° C.) saline until reflex bladder-voiding contractions occurred (usually 0.8-1.5 ml). For intravenous injection of bioactive compounds, PE 50 polyethylene tubing filled with physiological saline was inserted into the jugular vein.
From the cystometrogram, the number of contractions recorded 15 minutes before (basal values) and after treatment, as well as the mean amplitude of these contractions (mean height of the peaks in mmHg), was evaluated.
Since most compounds produced an effect that was relatively rapid in onset and led to a complete cessation of bladder contractions, bioactivity was conveniently estimated by measuring the duration of bladder quiescence (i.e., the time during which no contractions occurred). The number of tested animals showing a reduction in the number of contractions higher than 30% of that observed in the basal period was recorded too.
The extrapolated doses which induced a reduction in the number of contractions greater than 30% in 50% of the treated rats (ED50) were also evaluated by the method of Bliss (Bliss C. I., Quart J. Pharm. Pharmacol. 11, 192-216, 1938).

Where two headings read alike, the source gives them in different places.

With `CON[C@H](C1CCCCC1)[C@@H](CCN1CCN(c2ccccc2OC)CC1)c1ccccc1F` (racemic) [Example 4a, (RS,SR)-N-{1-Cyclohexyl-2-(2-fluorophenyl)-4-[4-(2-methoxyphenyl)piperazin-1-yl]butyl}-O-methylhydroxylamine], the Ki in assay [1] was 0.68 nM. The “Functional Activity” value in assay [2] is “IA”.
As to `COc1ccccc1N1CCN(CC[C@@H](c2ccccc2F)[C@H](NC(C)=O)C2CCCCC2)CC1` (racemic) [Example 7, N-{(RS,SR)-1-Cyclohexyl-2-(2-fluorophenyl)-4-[4-(2-methoxyphenyl)-piperazin-1-yl]butyl}acetamide], the inhibition constant (Ki) in assay [1] amounted to 1.69 nM. The “Functional Activity” value in assay [2] was “IA”. In addition, the inhibition at 10 mg/kg on 5-HT1A receptors (1 h before 8-OH-DPAT 1 mg/kg s.c., read-out: % Inhibition of forepaw treading, 1 h) was 87%; on 5-HT1A receptors (4 h before 8-OH-DPAT 1 mg/kg s.c., read-out: % Inhibition of forepaw treading, 4 h) it was 86%.
On to `COc1ccccc1N1CCN(CC[C@@H](c2ccccc2F)[C@@H](C2CCCCC2)N(C(C)=O)C(C)=O)CC1` (racemic) [Example 8, N-Acetyl-N-{(RS,SR)-1-cyclohexyl-2-(2-fluorophenyl)-4-[4-(2-methoxyphenyl)piperazin-1-yl]butyl}acetamide], for which the Ki in assay [1] turned out to be 0.68 nM. Further, the “Functional Activity” value in assay [2] is listed as “IA”.
The like results for `COc1ccccc1N1CCN(CC[C@@H](c2ccccc2F)[C@@H](C2CCCCC2)N(C)C(=S)N(C)C)CC1` (racemic) [Example 53, 1-{(RS,SR)-1-Cyclohexyl-2-(2-fluorophenyl)-4-[4-(2-methoxyphenyl)piperazin-1-yl]butyl}-1,3,3-trimethylthiourea] were, in that order, 1.7 nM and “IA”.
The like results for `COc1ccccc1N1CCN(CC[C@@H](c2ccccc2F)[C@H](NC(=S)N(C)C)C2CCCCC2)CC1` (single isomer, unassigned) [Example 24A, 3-{(1R,2S) or (1S,2R)-1-Cyclohexyl-2-(2-fluorophenyl)-4-[4-(2-methoxyphenyl)piperazin-1-yl]butyl}-1,1-dimethylthiourea] were, in that order, 0.7 nM and “IA”.
The like results for `COc1ccccc1N1CCN(CCC(c2ccccc2F)C(NCc2ccccc2)C2CCCCC2)CC1` (stereo not drawn) [Example 13, (RS,SR)- and (RS,RS)-N-Benzyl-{1-cyclohexyl-2-(2-fluorophenyl)-4-[4-(2-methoxyphenyl)piperazin-1-yl]butyl}amine] were, in that order, 0.3 nM and “IA”.
As for `CC(=O)N(C)C(C1CCCCC1)C(CCN1CCN(c2cccc3c2OCCO3)CC1)c1ccccc1F` (stereo not drawn) [Example 41, N-[1-Cyclohexyl-4-[4-(2,3-dihydrobenzo[1,4]dioxin-5-yl)piperazin-1-yl]-2-(2-fluoro-phenyl)butyl]-N-methylacetamide], in assay [1], the Ki was determined as 0.9 nM. The “Functional Activity” value in assay [2] is reported as “IA”.
`Cc1c(-c2ccccc2)oc2c(C(=O)OCCN3CCCCC3)cccc2c1=O` [Flavoxate, flavoxate]: the ED50 in assay [3] (Rattus norvegicus, read-out: ED50 (frequency) (extrapolated dose inducing a reduction of the number of contractions >30% in 50% of treated rats)) is 2.65 mg/kg. In assay [3], the “ED10 min (extrapolated dose inducing 10 minutes of disappearance of the contractions)” value is greater than 10 mg/kg.
